What was measured:
Type in all cases: cell-based
MKN-45, stomach cancer = assay: In vitro cytotoxicity, MTT assay, MKN-45; details: 96 h, MKN-45 human stomach cancer cells, 4 days incubation
Experimental: (§1) Three human cancer cell lines (A-549, lung cancer; SK-BR-3, breast cancer; MKN-45, stomach cancer) were tested in MTT assay. These cell lines were grown in RPMI 1640 medium supplemented with penicillin-streptomycin (100 units/mL) and 10% heat-inactivated fetal bovine serum under standard culture condition (20% O2 and 5% CO2, 37° C.). Single-cell suspensions were prepared by trypsinization and pipette disaggregation. The number of cells for each cell line plated in 96-well microtiter plates was determined from the growth curve obtained in MTT assay. Test compounds were diluted from stock solution in DMSO into fresh medium to a 10× concentration. Cells were inoculated into each well in 180 μL of medium and eight different concentrations of 20 μL of test compounds were added to each well. The plates were then incubated for 4 days at 37° C., 5% CO2. After 4 days of culture, 0.1 mg (20 μL of 5 mg/mL) of MTT was added to each well. The plates were then incubated at 37° C. for 4 hours. After the plates were centrifuged at 1,000 rpm for 10 minutes, the supernatant was aspirated. 150 μL of DMSO was added to each well to solubilize formazan crystals. The plates were read immediately at 550 nm on Elisa reader (Dynatech, MR 5000).

A-549, lung cancer = assay: In vitro cytotoxicity, MTT assay, A-549; details: A549, 96 h, A-549 human lung cancer cells, 4 days incubation
Experimental: as §1

SK-BR-3, breast cancer = assay: In vitro cytotoxicity, MTT assay, SK-BR-3; details: 96 h, SK-BR-3 human breast cancer cells, 4 days incubation
Experimental: as §1

| SMILES | IC50 (MKN-45, stomach cancer) | IC50 (A-549, lung cancer) | IC50 (SK-BR-3, breast cancer) |
| --- | --- | --- | --- |
| O=C(C=Cc1ccc(CNC(=O)c2ccc(N3CCN(Cc4ccncc4)CC3)cc2)cc1)NO [Example 3, N-[4-(2-Hydroxycarbamoylvinyl)benzyl]-4-(4-pyridin-4-ylmethylpiperazin-1-yl)benzamide] | 56.1 µM | 3.02 µM | 1.72 µM |
| O=C(C=Cc1ccc(CNC(=O)c2cccnc2)cc1)NO [Example 7, N-[4-(2-Hydroxycarbamoylvinyl)benzyl]nicotinamide] | 4.98 µM | 2.89 µM | 1.28 µM |
| O=C(C=Cc1ccc(CNC(=O)c2ccc(N3CCN(Cc4cccnc4)CC3)cc2)cc1)NO [Example 1, N-[4-(2-Hydroxycarbamoylvinyl)benzyl]-4-(4-pyridin-3-ylmethylpiperazin-1-yl)benzamide] | 38.6 µM | 12 µM | 3.19 µM |
| O=C(C=Cc1ccc(CNC(=O)c2ccc(N3CCN(Cc4ccccn4)CC3)cc2)cc1)NO [Example 2, N-[4-(2-Hydroxycarbamoylvinyl)benzyl]-4-(4-pyridin-2-ylmethylpiperazin-1-yl)benzamide] | 2.94 µM | 1.65 µM | 0.27 µM |
| O=C(C=Cc1ccc(CNC(=O)c2ccccn2)cc1)NO [Example 4, N-[4-(2-Hydroxycarbamoylvinyl)benzyl]picolinamide] | 3.64 µM | 2.23 µM | 0.87 µM |
| O=C(C=Cc1ccc(CNC(=O)OCc2cccnc2)cc1)NO [Example 8, [4-(2-Hydroxycarbamoylvinyl)benzyl]carbamic acid pyridin-3-ylmethyl ester] | 3.34 µM | 2.61 µM | 1.12 µM |
| O=C(C=Cc1ccc(CNC(=O)c2ccc(N3CCCC3)cc2)cc1)NO [Example 5, N-[4-(2-Hydroxycarbamoylvinyl)benzyl]-4-pyrrolidin-1-ylbenzamide] | 0.8 µM | 0.35 µM | 0.11 µM |
| CN(C)c1ccc(C(=O)NCc2ccc(C=CC(=O)NO)cc2)cc1 [Example 6, 4-Dimethylamino-N-[4-(2-hydroxycarbamoylvinyl)benzyl]benzamide] | 0.83 µM | 0.48 µM | 0.16 µM |
| O=C(C=Cc1ccc(CS(=O)(=O)Nc2cccnc2)cc1)NO [Example 9, N-Hydroxy-3-[4-(pyridin-3-ylsulfamoylmethyl)phenyl]acrylamide] | 62 µM | 37 µM | 22.9 µM |
| O=C(C=Cc1ccc(CS(=O)(=O)c2ccccc2)cc1)NO [Example 10, 3-[4-(Benzenesulfonylmethyl)phenyl]-N-hydroxyacrylamide] | 8.34 µM | 11.1 µM | 4.57 µM |

— patent US7495022B2, “α,β-unsaturated hydroxamic acid derivatives and their use as histone deacetylase inhibitors” (SK Chemicals Co., Ltd., priority 2002, dated 2009)
